Laboratory results published in patent publication US6087493A, “Porphyrin compounds as telomerase inhibitors” (Regents of the University of Texas System, priority 1998, dated 2000).

Target: human telomerase (Homo sapiens, UniProt O14746)
Experiment: Telomerase inhibition, primer extension assay in HeLa cell extract
Assay type: biochemical
Conditions: 25 μM; Table 5; read-out: % Inhibition of telomerase

Sequence of human telomerase (O14746 whole entry): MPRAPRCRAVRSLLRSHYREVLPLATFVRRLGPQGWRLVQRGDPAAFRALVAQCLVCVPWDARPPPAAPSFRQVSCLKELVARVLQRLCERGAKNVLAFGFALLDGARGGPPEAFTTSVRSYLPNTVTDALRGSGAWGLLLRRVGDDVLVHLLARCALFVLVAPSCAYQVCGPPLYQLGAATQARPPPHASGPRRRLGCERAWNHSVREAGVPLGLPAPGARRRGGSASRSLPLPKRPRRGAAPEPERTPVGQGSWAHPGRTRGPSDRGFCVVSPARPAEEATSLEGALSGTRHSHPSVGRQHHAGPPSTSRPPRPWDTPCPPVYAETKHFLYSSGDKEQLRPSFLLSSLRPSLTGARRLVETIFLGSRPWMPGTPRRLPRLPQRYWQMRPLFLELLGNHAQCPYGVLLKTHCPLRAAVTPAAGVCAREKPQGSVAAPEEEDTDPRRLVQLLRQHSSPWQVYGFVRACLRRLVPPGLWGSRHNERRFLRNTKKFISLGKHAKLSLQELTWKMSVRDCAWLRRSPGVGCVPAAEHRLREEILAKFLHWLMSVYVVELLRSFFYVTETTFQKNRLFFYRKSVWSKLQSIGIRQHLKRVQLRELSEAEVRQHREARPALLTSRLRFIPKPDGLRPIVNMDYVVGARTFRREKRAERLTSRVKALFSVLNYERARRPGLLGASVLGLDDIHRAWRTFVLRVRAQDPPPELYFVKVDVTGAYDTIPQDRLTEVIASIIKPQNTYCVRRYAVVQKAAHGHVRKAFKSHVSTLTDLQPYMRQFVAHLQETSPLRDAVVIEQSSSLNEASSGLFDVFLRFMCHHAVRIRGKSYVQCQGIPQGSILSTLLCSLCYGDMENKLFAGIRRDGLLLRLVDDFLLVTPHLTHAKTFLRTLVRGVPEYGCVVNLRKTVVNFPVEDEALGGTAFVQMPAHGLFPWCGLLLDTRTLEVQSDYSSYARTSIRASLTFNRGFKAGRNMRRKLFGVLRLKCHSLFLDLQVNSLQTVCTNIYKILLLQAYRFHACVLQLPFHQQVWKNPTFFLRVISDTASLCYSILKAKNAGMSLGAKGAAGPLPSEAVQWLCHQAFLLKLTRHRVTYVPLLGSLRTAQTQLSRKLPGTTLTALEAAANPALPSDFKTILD

Row | inhibition at 25 µM | SMILES
1 | 6% | C[N+](C)(C)c1ccc(-c2c3nc(c(-c4ccc([N+](C)(C)C)cc4)c4ccc([nH]4)c(-c4ccc([N+](C)(C)C)cc4)c4nc(c(-c5ccc([N+](C)(C)C)cc5)c5ccc2[nH]5)C=C4)C=C3)cc1 [TAP (B23), tetra(N,N,N-trimethyl-4-aminophenyl)porphyrin chloride]

Same assay, conditions: 25 μM; Table 7; read-out: % Inhibition of telomerase

Row | inhibition at 25 µM | SMILES
2 | 31% | Cc1ccc(-c2c3nc(c(-c4ccc(C)cc4)c4ccc([nH]4)c(-c4cc[n+](C)cc4)c4nc(c(-c5ccc(C)cc5)c5ccc2[nH]5)C=C4)C=C3)cc1 [Compound D9, 5-(N-methyl-4-pyridyl)-10,15,20-(4-methylphenyl)porphine chloride]
3 | 20% | C[n+]1ccc(-c2c3nc(c(-c4ccccc4)c4ccc([nH]4)c(-c4ccccc4)c4nc(c(-c5cc[n+](C)cc5)c5ccc2[nH]5)C=C4)C=C3)cc1 [Compound B5, 5,10-Diphenyl-15,20-di(N-methyl-4-pyridyl)porphyrin chloride]
4 | 0% | C[n+]1ccccc1-c1c2nc(c(-c3ccccc3)c3ccc([nH]3)c(-c3ccccc3)c3nc(c(-c4ccccc4)c4ccc1[nH]4)C=C3)C=C2 [Compound B26]

Row | SMILES | inhibition at 25 µM
5 | C[n+]1cccc(-c2c3nc(c(-c4ccc[n+](C)c4)c4ccc([nH]4)c(-c4ccc[n+](C)c4)c4nc(c(-c5ccccc5)c5ccc2[nH]5)C=C4)C=C3)c1 [Compound B10, Tri(N-methyl-3-pyridyl)phenylporphyrin chloride] | 42%

Same assay, conditions: 25 μM; Table 9; read-out: % Inhibition of telomerase

Row | SMILES | inhibition at 25 µM
6 | O=[N+]([O-])c1cc(-c2c3nc(cc4ccc([nH]4)c(-c4ccc(O)c([N+](=O)[O-])c4)c4nc(cc5ccc2[nH]5)C=C4)C=C3)ccc1O [Compound D14] | 55%

Same assay, conditions: 25 μM; Table 13; read-out: % Inhibition of telomerase

Row | inhibition at 25 µM | SMILES
7 | 18% | C[N+](C)(C)c1ccc(-c2c3nc(c(-c4ccc([N+](C)(C)C)cc4)c4ccc([nH]4)c(-c4ccc([N+](C)(C)C)cc4)c4nc(c(-c5ccc([N+](C)(C)C)cc5)c5ccc2[nH]5)C=C4)C=C3)cc1 [TAP (B23), tetra(N,N,N-trimethyl-4-aminophenyl)porphyrin chloride]
8 | 15% | Nc1cccc(-c2c3nc(c(-c4cccc(N)c4)c4ccc([nH]4)c(-c4cccc(N)c4)c4nc(c(-c5cccc(N)c5)c5ccc2[nH]5)C=C4)C=C3)c1 [Compound B2, Tetra-(3-aminophenyl)porphyrin]
9 | 50% | Nc1ccc(-c2c3nc(c(-c4ccc(N)cc4)c4ccc([nH]4)c(-c4ccc(N)cc4)c4nc(c(-c5ccc(N)cc5)c5ccc2[nH]5)C=C4)C=C3)cc1 [Compound B1, Tetra-(4-aminophenyl)porphyrin]

Same assay, conditions: Table 15; concentration fixed at 25 μM; 25 µM

Row | % Inhibition of telomerase | SMILES
10 | 16% | C=CC1=C(C)c2cc3[nH]c(cc4nc(cc5[nH]c(cc1n2)c(C)c5C=C)C(C)=C4CCC(=O)O)c(CCC(=O)O)c3C [Compound H19]

Same assay, conditions: Table 15; concentration fixed at 25 μM; read-out: % Inhibition of telomerase

Row | inhibition at 25 µM | SMILES
11 | 14% | COC(=O)CCC1=C(C)c2cc3[nH]c(cc4nc(cc5[nH]c(cc1n2)c(CCC(=O)OC)c5C)C(C)=C4C(C)=O)c(C)c3C(C)=O [Compound H9]
12 | 14% | COC(=O)CCC1=C(C)c2cc3cc(C)c(cc4nc(cc5[nH]c(cc1n2)c(CCC(=O)OC)c5C)C(C)=C4)[nH]3 [Compound H7]
13 | 4% | O=C(O)CCC1=C(CC(=O)O)c2cc3[nH]c(cc4nc(cc5[nH]c(cc1n2)c(CCC(=O)O)c5CC(=O)O)C(CC(=O)O)=C4CCC(=O)O)c(CCC(=O)O)c3CC(=O)O [Compound H24]
14 | 0% | CCC1=C(C)c2cc3[nH]c(cc4nc(cc5[nH]c(cc1n2)c(C)c5CC)C(C)=C4CC)c(CC)c3C [Compound H2]
15 | 20% | COC(=O)CCC1=C(C)c2cc3[nH]c(cc4nc(cc5[nH]c(cc1n2)c(CCC(=O)OC)c5C)C(C)=C4C(C)O)c(C)c3C(C)O (stereo not shown) [Compound H11]
16 | 23% | COC(=O)CCC1=C(C)c2cc3[nH]c(cc4nc(cc5[nH]c(cc1n2)c(C)c5CCC(=O)OC)C(C)=C4C)c(C)c3C [Compound H30]
17 | 0% | CC(=O)C1=C(C)c2cc3[nH]c(cc4nc(cc5[nH]c(cc1n2)c(C)c5C(C)=O)C(C)=C4CCC(=O)O)c(C)c3CCC(=O)O [Compound H29]
18 | 0% | CCC1=C(C)c2cc3[nH]c(cc4nc(cc5[nH]c(cc1n2)c(C)c5CC)C(C)=C4CCC(=O)OC)c(CCC(=O)OC)c3C [Compound H16]
19 | 0% | CCC1=C(C)c2cc3[nH]c(cc4nc(cc5[nH]c(cc1n2)c(C)c5CC)C(C)=C4)c(C)c3CC(=O)OC [Compound H32]
